Measurements published in patent US6635637B2, “Cyclic oxyguanidine protease inhibitors” (Dimensional Pharmaceuticals, Inc., priority 2000, dated 2003).
Where a name gives a salt, the structure may show the parent alone.

Target: T1, human α-thrombin (Homo sapiens, UniProt P00734)
T1 construct: Purified human α-thrombin; purchased Enzyme Research Laboratories (South Bend, Ind.)
Assay: In vitro inhibition of purified thrombin (p-nitroanilide substrate hydrolysis, Ki determination)
Assay type: biochemical
Conditions: purified human α-thrombin 0.5 nM; substrate N-succinyl-Ala-Ala-Pro-Arg-p-nitroanilide 32 μM; 37° C.; pH 7.5
From the text: Reagents: All buffer salts were obtained from Sigma Chemical Company (St. Louis, Mo.), and were of the highest purity available. The enzyme substrates, N—N-benzoyl-Phe-Val-Arg-p-nitroanilide (Sigma B7632), N-benzoyl-Ile-Glu-Gly-Arg-p-nitroanilide hydrochloride (Sigma B2291), N-p-Tosyl-Gly-Pro-Lys-p-nitroanilide (Sigma T6140), N-succinyl-Ala-Ala-Pro-Phe-p-nitroanilide (Sigma S7388) and N-CBZ-Val-Gly-Arg-p-nitroanilide (Sigma C7271) were obtained from Sigma. N-succinyl-Ala-Ala-Pro-Arg-p-nitroanilide (BACHEM L-1720) and N-succinyl-Ala-Ala-Pro-Val-p-nitroanilide (BACHEM L-1770) were obtained from BACHEM (King of Prussia, Pa.).
Human α-thrombin, human factor Xa and human plasmin were obtained from Enzyme Research Laboratories (South Bend, Ind.). Bovine α-chymotrypsin (Sigma C4129), bovine trypsin (Sigma T8642) and human kidney cell urokinase (Sigma U5004) were obtained from Sigma. Human leukocyte elastase was obtained from Elastin Products (Pacific, Mo.).
Ki Determinations: All assays are based on the ability of the test compound to inhibit the enzyme catalyzed hydrolysis of a peptide p-nitroanilide substrate. […] In general, substrate concentrations are lower than the experimentally determined value for Km. […]
In a typical Ki determination, into each well of a 96 well plate is pipetted 280 μL of substrate solution, 10 μL of test compound solution, and the plate allowed to thermally equilibrate at 37° C. in a Molecular Devices plate reader for >15 minutes. Reactions were initiated by the addition of a 10 μL aliquot of enzyme and the absorbance increase at 405 nm is recorded for 15 minutes. […] The ratio of the velocity (rate of change in absorbance as a function of time) for a sample containing no test compound is divided by the velocity of a sample containing test compound, and is plotted as a function of test compound concentration. The data are fit to a linear regression, and the value of the slope of the line calculated. The inverse of the slope is the experimentally determined Ki value. […]

SMILES	Ki [nM]
CS(=O)(=O)c1ccccc1S(=O)(=O)Oc1cc(Cl)cc(OCC2CCN(C(=N)N)OC2)c1 (stereo not drawn) [Example 2, 3-[(2-Amidino(1,2-oxazaperhydroin-5-yl))methoxy]-5-chlorophenyl 2-(methylsulfonyl)benzenesulfonate trifluoroacetate]	13
C=CCN(C(=O)c1cc(Cl)cc(OCC2CCN(C(=N)N)OC2)c1)C1CCCC1 (stereo not drawn) [Example 3, 5-{[5-Chloro-3-(N-cyclopentyl-N-prop-2-enylcarbamoyl)phenoxy]methyl}-1,2-oxazaperhydroine-2-carboxamidine trifluoroacetate]	8
Cc1cc(OCC2CCN(C(=N)N)OC2)cc(OS(=O)(=O)c2ccccc2S(C)(=O)=O)c1 (stereo not drawn) [Example 1, 3-[(2-Amidino(1,2-oxazaperhydroin-5-yl))methoxy]-5-methylphenyl 2-(methylsulfonyl)benzenesulfonate Trifluoroacetate]	7
